In this test the test system is L1210 leukemia ip in BDF1 mice, survival T/C. Briefly: NCI In Vivo Anticancer Drug Screen. Data for tumor model L1210 Leukemia (intraperitoneal) in B6D2F1 (BDF1) mice. The note with it: endpoint: mean survival time, higher = longer survival. The method in brief:
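In this screen, tumor-bearing mice given compound are compared to those given vehicle, and their survival values are reported as a treated-to-control quotient.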

The mark [1] stands for this setting: dose: 100.0 mg/kg/injection, schedule: Q01DX001 (ip), vehicle: saline.
The mark [2] stands for this setting: dose: 200.0 mg/kg/injection, schedule: Q01DX001 (ip), vehicle: saline.
[3] abbreviates: dose: 400.0 mg/kg/injection, schedule: Q01DX001 (ip), vehicle: saline.
Setting [4] is: dose: 100.0 mg/kg/injection, schedule: Q01DX009 (ip), vehicle: saline with Tween-80.
[5] abbreviates: dose: 200.0 mg/kg/injection, schedule: Q01DX009 (ip), vehicle: saline with Tween-80.
Setting [6] is: dose: 400.0 mg/kg/injection, schedule: Q01DX009 (ip), vehicle: saline with Tween-80.
The mark [7] stands for this setting: dose: 100.0 mg/kg/injection, schedule: Q01DX009 (ip), vehicle: other.
Where [8] appears, read: dose: 200.0 mg/kg/injection, schedule: Q01DX009 (ip), vehicle: other.
Setting [9] is: dose: 400.0 mg/kg/injection, schedule: Q01DX009 (ip), vehicle: other.
[10] abbreviates: dose: 100.0 mg/kg/injection, schedule: Q01DX009 (ip), vehicle: Klucel (hydroxypropylcellulose) (HPC).
[11] abbreviates: dose: 200.0 mg/kg/injection, schedule: Q01DX009 (ip), vehicle: Klucel (hydroxypropylcellulose) (HPC).
Setting [12] is: dose: 400.0 mg/kg/injection, schedule: Q01DX009 (ip), vehicle: Klucel (hydroxypropylcellulose) (HPC).
Where [13] appears, read: dose: 100.0 mg/kg/injection, schedule: Q01DX001 (ip), vehicle: carboxymethylcellulose (CMC).
[14] abbreviates: dose: 200.0 mg/kg/injection, schedule: Q01DX001 (ip), vehicle: carboxymethylcellulose (CMC).
Setting [15] is: dose: 400.0 mg/kg/injection, schedule: Q01DX001 (ip), vehicle: carboxymethylcellulose (CMC).

Several values for one entry are separate records, joined by “and”; a condition that tells them apart may be missing. Identical values can stand only once. Inconclusive results and toxic doses are left out.

As for `CSc1cc(C(=O)Nc2ccc(C3=NCCN3)cc2)ccc1C(=O)Nc1ccc(C2=NCCN2)cc1`, the T/C is, setting by setting: (dose: 0.5 mg/kg/injection, schedule: Q01DX Z (ip), vehicle: carboxymethylcellulose (CMC)) 109 % of control; (dose: 0.62 mg/kg/injection, schedule: Q01DX015 (ip), vehicle: methylcellulose (MC)) 112 % of control; (dose: 1.25 mg/kg/injection, schedule: Q01DX015 (ip), vehicle: methylcellulose (MC)) 108 % of control; (dose: 3.75 mg/kg/injection, schedule: Q01DX Z (ip), vehicle: carboxymethylcellulose (CMC)) 203 % of control; (dose: 7.5 mg/kg/injection, schedule: Q01DX Z (ip), vehicle: carboxymethylcellulose (CMC)) 231 % of control; (dose: 10.0 mg/kg/injection, schedule: Q01DX015 (ip), vehicle: methylcellulose (MC)) 231 % of control. In addition, the T/C (dose: 10.0 mg/kg/injection, schedule: Q01DX Z (ip), vehicle: carboxymethylcellulose (CMC)) was 236 % of control; the T/C (dose: 15.0 mg/kg/injection, schedule: Q01DX Z (ip), vehicle: carboxymethylcellulose (CMC)) was 280 % of control; the T/C (dose: 20.0 mg/kg/injection, schedule: Q01DX015 (ip), vehicle: methylcellulose (MC)) was 286 % of control; the T/C (dose: 20.0 mg/kg/injection, schedule: Q01DX Z (ip), vehicle: carboxymethylcellulose (CMC)) was 287 % of control; the T/C (dose: 30.0 mg/kg/injection, schedule: Q01DX Z (ip), vehicle: carboxymethylcellulose (CMC)) is 178 % of control; the T/C (dose: 40.0 mg/kg/injection, schedule: Q01DX015 (ip), vehicle: methylcellulose (MC)) is 221 % of control. The T/C runs as follows: (dose: 40.0 mg/kg/injection, schedule: Q01DX Z (ip), vehicle: carboxymethylcellulose (CMC)) 168 % of control; (dose: 50.0 mg/kg/injection, schedule: Q01DX Z (oral), vehicle: carboxymethylcellulose (CMC)) 102 % of control; (dose: 100.0 mg/kg/injection, schedule: Q01DX Z (oral), vehicle: carboxymethylcellulose (CMC)) 100 % of control; (dose: 150.0 mg/kg/injection, schedule: Q01DX001 (ip), vehicle: methylcellulose (MC)) 167 % of control; (dose: 200.0 mg/kg/injection, schedule: Q01DX Z (oral), vehicle: carboxymethylcellulose (CMC)) 104 % of control; (dose: 400.0 mg/kg/injection, schedule: Q01DX Z (oral), vehicle: carboxymethylcellulose (CMC)) 95 % of control.

As to `CC(=O)OCC/C(=C/c1cc2ccccc2c2ccccc12)[N+](=O)[O-]`, the T/C runs as follows: under setting [1], 100 % of control; under setting [2], 105 % of control; under setting [3], 113 % of control.

`NCCNC12CC3CC(CC(C3)C1)C2`: the T/C is 113 % of control (dose: 100.0 mg/kg/injection, schedule: Q04DX002 (ip), vehicle: saline) and 107 % of control (dose: 200.0 mg/kg/injection, schedule: Q04DX002 (ip), vehicle: saline).

With `O=C(Nc1ccccc1)c1ccc2c(c1)C(=O)OC2=O`, the T/C reads like this: under setting [4], 102 % of control; under setting [5], 94 % of control; under setting [6], 89 % of control.

As for `CCCCCCCS(=O)(=O)CCCCCCC`, the T/C (dose: 25.6 mg/kg/injection, schedule: Q04DX002 (ip), vehicle: saline with Tween-80) was 95 % of control; the T/C (dose: 64.0 mg/kg/injection, schedule: Q04DX002 (ip), vehicle: saline with Tween-80) was 91 % of control; the T/C under setting [4] is 94 % of control; the T/C (dose: 100.0 mg/kg/injection, schedule: Q04DX003 (ip), vehicle: saline with Tween-80) is 93 % of control; the T/C (dose: 160.0 mg/kg/injection, schedule: Q04DX002 (ip), vehicle: saline with Tween-80) was 91 % of control; the T/C under setting [5] is 94 % of control. Moreover, the T/C reads like this: (dose: 200.0 mg/kg/injection, schedule: Q04DX003 (ip), vehicle: saline with Tween-80) 95 % of control; under setting [6], 98 % of control; (dose: 400.0 mg/kg/injection, schedule: Q04DX002 (ip), vehicle: saline with Tween-80) 95 % of control; (dose: 400.0 mg/kg/injection, schedule: Q04DX003 (ip), vehicle: saline with Tween-80) 90 % of control.

Turning to `CCCCCCCCCCCCCCCCCCNC(=S)N(C)C`, the T/C runs as follows: (dose: 100.0 mg/kg/injection, schedule: Q04DX003 (ip), vehicle: Klucel (hydroxypropylcellulose) (HPC)) 89 % of control; (dose: 200.0 mg/kg/injection, schedule: Q04DX003 (ip), vehicle: Klucel (hydroxypropylcellulose) (HPC)) 86 % of control; (dose: 400.0 mg/kg/injection, schedule: Q04DX003 (ip), vehicle: Klucel (hydroxypropylcellulose) (HPC)) 89 % of control.

As for `Nc1nc(O)c(NC(=O)Nc2ccccc2)c(=O)[nH]1`, the T/C is 102 % of control (dose: 100.0 mg/kg/injection, schedule: Q04DX003 (ip), vehicle: gum acacia); 100 % of control (dose: 200.0 mg/kg/injection, schedule: Q04DX003 (ip), vehicle: gum acacia); 105 % of control (dose: 400.0 mg/kg/injection, schedule: Q04DX003 (ip), vehicle: gum acacia).

Regarding `CC(O)C(=O)N(O)c1ccccc1OCc1ccccc1` (stereo unspecified), the T/C was 104 % of control (dose: 75.0 mg/kg/injection, schedule: Q01DX001 (ip), vehicle: acetone); 102 % of control (dose: 75.0 mg/kg/injection, schedule: Q04DX003 (ip), vehicle: acetone); 91 % of control (dose: 150.0 mg/kg/injection, schedule: Q01DX001 (ip), vehicle: acetone); 98 % of control (dose: 150.0 mg/kg/injection, schedule: Q04DX003 (ip), vehicle: acetone); 89 % of control (dose: 300.0 mg/kg/injection, schedule: Q01DX001 (ip), vehicle: acetone); 96 % of control (dose: 300.0 mg/kg/injection, schedule: Q04DX003 (ip), vehicle: acetone).

`CS(=O)(=O)N(CC(=O)O)Cc1cccnc1`: the T/C under setting [7] was 101 % of control; the T/C (dose: 100.0 mg/kg/injection, schedule: Q04DX003 (ip), vehicle: other) was 106 % of control; the T/C under setting [8] is 101 % of control; the T/C (dose: 200.0 mg/kg/injection, schedule: Q04DX003 (ip), vehicle: other) is 93 % of control; the T/C under setting [9] is 105 % of control; the T/C (dose: 400.0 mg/kg/injection, schedule: Q04DX003 (ip), vehicle: other) is 95 % of control.

Turning to `CC(C)c1ccc(/C=N/NC(=S)Nc2ccccc2)cc1`, the T/C is 93 % of control under setting [10], 93 % of control under setting [11] and 90 % of control under setting [12].

In the case of `CN(C)c1ccc(/C=N/NC(=O)c2ccccc2NC(=O)C2CC2)cc1`, the T/C was 93 % of control under setting [10], 104 % of control under setting [11] and 90 % of control under setting [12].

`Cc1ccc(NC(=O)Oc2ccccc2F)cc1NC(=O)Oc1ccccc1F`: the T/C under setting [7] was 102 % of control, the T/C under setting [8] was 90 % of control and the T/C under setting [9] is 94 % of control.

Turning to `CCS(=O)(=O)CCOC(=O)c1ccc([N+](=O)[O-])cc1`, the T/C under setting [13] was 100 % of control, the T/C under setting [14] is 105 % of control and the T/C under setting [15] was 98 % of control.

As for `C(OC[C@H]1CC[C@@H](COCC2CO2)O1)C1CO1` (stereo partly specified), the T/C under setting [1] is 112 % of control; the T/C (dose: 108.0 mg/kg/injection, schedule: Q01DX007 (ip), vehicle: saline) was 120 % of control; the T/C (dose: 178.0 mg/kg/injection, schedule: Q01DX001 (ip), vehicle: saline) was 106 % of control and 110 % of control; the T/C under setting [2] was 109 % of control; the T/C (dose: 267.0 mg/kg/injection, schedule: Q01DX001 (ip), vehicle: saline) was 114 % of control and 115 % of control; the T/C under setting [3] was 114 % of control. Also, the T/C (dose: 600.0 mg/kg/injection, schedule: Q01DX001 (ip), vehicle: saline) is 98 % of control.

Take `c1ccc(-c2ccccc2SSc2ccccc2-c2ccccc2)cc1`: the T/C is, setting by setting: under setting [13], 96 % of control; under setting [14], 105 % of control; under setting [15], 91 % of control.

Source of the values: PubChem BioAssay AID248 (DTP/NCI, 2004).
